In the NIST ThermoML archive (doi:10.1016/j.tca.2015.08.032):
Several values for one entry are separate records, joined by “and”; a condition that tells them apart may be missing. Equal values may be shown once.

Experiments:
[1] = for mass density / viscosity: 101.33 kPa, Liquid; for mass density: Pycnometric method; for Normal melting temperature: Crystal, DTA; for viscosity: Cone and plate viscometry
[2] = molar heat capacity at constant pressure; settings: 101.33 kPa, Liquid, Small sample (50 mg) DSC

Cn1cc[n+](CC(CBr)N=[N+]=[N-])c1.[Br-] (stereo not given) [1-(2-azido-3-bromopropyl)-3-methyl-3H-imidazol-1-ium bromide]
Settings	mass density [kg/m3]
[1], 298 K	1360

Settings	Normal melting temperature [°C]
[1]	10

Cn1cc[n+](CC(Br)CN=[N+]=[N-])c1.N#C[N-]C#N (stereo not given)
Settings	mass density [kg/m3]
[1], 298 K	1280

Settings	Normal melting temperature [°C]
[1]	6

C=Cn1cc[n+](CC(C[n+]2ccn(C)c2)N=[N+]=[N-])c1.[Br-].[Br-] (stereo not given)
Settings	mass density [kg/m3]
[1], 298 K	1560

Settings	Normal melting temperature [°C]
[1]	23

Cn1cc[n+](CC(Br)CN=[N+]=[N-])c1.[Br-] (stereo not given) [1-(3-azido-2-bromopropyl)-3-methyl-3H-imidazol-1-ium bromide]
Settings	mass density [kg/m3]
[1], 298 K	1340

Settings	Normal melting temperature [°C]
[1]	17

Cn1cc[n+](CC(CBr)N=[N+]=[N-])c1.N#C[N-]C#N (stereo not given)
[1]
Settings	mass density [kg/m3]	viscosity
298 K	1310	57.01 mPa·s and 56.9 mPa·s
299 K	–	53.28 mPa·s
300 K	–	49.6 mPa·s and 49.44 mPa·s
301 K	–	46.03 mPa·s
302 K	–	42 mPa·s and 42.05 mPa·s
303.1 K	–	38.84 mPa·s
304 K	–	35.9 mPa·s and 35.89 mPa·s
306 K	–	30.94 mPa·s
306.1 K	–	30.9 mPa·s
307.9 K	–	26.97 mPa·s and 26.9 mPa·s and 26.98 mPa·s
309.8 K	–	23.3 mPa·s
313.9 K	–	17.9 mPa·s
317.9 K	–	13.9 mPa·s
322 K	–	10.8 mPa·s
325.9 K	–	8.8 mPa·s
331.8 K	–	5.9 mPa·s
336 K	–	4.8 mPa·s
339.9 K	–	4.1 mPa·s
344 K	–	3.5 mPa·s
347.9 K	–	3.1 mPa·s
353 K	–	2.5 mPa·s
357.9 K	–	2.2 mPa·s
361.9 K	–	2 mPa·s

Settings	Normal melting temperature [°C]
[1]	-2

C=Cn1cc[n+](CC(C[n+]2ccn(C)c2)N=[N+]=[N-])c1.N#C[N-]C#N.N#C[N-]C#N (stereo not given)
Settings	mass density [kg/m3]	molar heat capacity at constant pressure [J/K/mol]	viscosity [mPa·s]
[1], 298 K	1490	–	83.9
[1], 298.9 K	–	–	66.3
[1], 300 K	–	–	58.4
[1], 300.9 K	–	–	53
[1], 303 K	–	–	45.8
[1], 307.9 K	–	–	35.6
[1], 312.9 K	–	–	29.9
[1], 317.9 K	–	–	26.2
[1], 322.9 K	–	–	23.4
[1], 327.9 K	–	–	20.8
[1], 332.9 K	–	–	18.7
[1], 337.9 K	–	–	17.1
[1], 342.9 K	–	–	16.4
[1], 347.9 K	–	–	15.8
[1], 353 K	–	–	15.2
[1], 357.9 K	–	–	14.6
[1], 362.9 K	–	–	14
[2], 298 K	–	400	–
[2], 303 K	–	409.7	–
[2], 323 K	–	452	–

Settings	Normal melting temperature [°C]
[1]	19
